Data reported in ChEMBL document CHEMBL1147597, “Synthesis and biological evaluations of novel benzimidazoles as potential antibacterial agents” (Bioorg Med Chem Lett, 2004).
In brackets after ≈: the same amount, converted by molar mass.

Assays:
Escherichia coli [1] = test: Minimal inhibitory concentration against Escherichia coli (Range is 50-100 uM); format: functional
Staphylococcus aureus [2] = test: Minimal inhibitory concentration against Staphylococcus aureus (Range is 25-50 uM); format: functional
Escherichia coli [3] = test: Minimal inhibitory concentration against Escherichia coli; format: functional
Staphylococcus aureus [4] = test: In vitro minimal inhibitory concentration against Staphylococcus aureus.; format: functional
Bacteria = test: Inhibitory activity against bacteria in the transcription/translation assay; format: functional, organism-based
Enterococcus hirae [5] = test: Minimal inhibitory concentration against gram positive Enterococcus hirae 29212 strain (Range is 3-6 uM); format: functional
Escherichia coli [6] = test: Minimal inhibitory concentration against Escherichia coli (Range is 12-25 uM); format: functional
Escherichia coli [7] = test: Minimal inhibitory concentration against gram negative Escherichia coli 25922 strain (Range is 12-25 uM); format: functional; conditions: ATCC25922
Klebsiella pneumoniae [8] = test: Minimal inhibitory concentration against gram negative Klebsiella pneumoniae 13383 strain (Range is 25-50 uM); format: functional
Pseudomonas aeruginosa [9] = test: Minimal inhibitory concentration against gram negative Pseudomonas aeruginosa 25416 strain; format: functional
Proteus vulgaris [10] = test: Minimal inhibitory concentration against gram negative Proteus vulgaris 8427 strain (Range is 12-25 uM); format: functional
Staphylococcus aureus [11] = test: Minimal inhibitory concentration against Staphylococcus aureus (Range is 6-12 uM); format: functional
Staphylococcus aureus [12] = test: Minimal inhibitory concentration against gram positive Staphylococcus aureus 13709 strain (Range is 6-12 uM); format: functional
Streptococcus pyogenes = test: Minimal inhibitory concentration against gram positive Streptococcus pyogenes 49399 strain (Range is 6-12 uM); format: functional
Streptococcus pneumoniae = test: Minimal inhibitory concentration against gram positive Streptococcus pneumoniae 6303 strain (Range is 12-25 uM); format: functional
Staphylococcus aureus [13] = test: Minimal inhibitory concentration against Staphylococcus aureus (Range is 50-100 uM); format: functional
Staphylococcus aureus [14] = test: Minimal inhibitory concentration against Staphylococcus aureus (Range is 12-25 uM); format: functional
Enterococcus hirae [15] = test: Minimal inhibitory concentration against gram positive Enterococcus hirae 29212 strain (Range is 1-3 uM); format: functional
Escherichia coli [16] = test: Minimal inhibitory concentration against Escherichia coli (Range is 25-50 uM); format: functional
Escherichia coli [17] = test: Minimal inhibitory concentration against gram negative Escherichia coli 25922 strain (Range is 25-50 uM); format: functional; conditions: ATCC25922
Klebsiella pneumoniae [18] = test: Minimal inhibitory concentration against gram negative Klebsiella pneumoniae 13383 strain (Range is 12-25 uM); format: functional
Proteus vulgaris [19] = test: Minimal inhibitory concentration against gram negative Proteus vulgaris 8427 strain; format: functional
Escherichia coli [20] = test: Minimal inhibitory concentration against gram negative Escherichia coli 25922 strain; format: functional; conditions: ATCC25922
Pseudomonas aeruginosa [21] = test: Minimal inhibitory concentration against gram negative Pseudomonas aeruginosa 25416 strain (Range is 50-100 uM); format: functional
Proteus vulgaris [22] = test: Minimal inhibitory concentration against gram negative Proteus vulgaris 8427 strain (Range is 25-50 uM); format: functional
Escherichia coli [23] = test: Minimal inhibitory concentration against Escherichia coli (Range is 3-6 uM); format: functional
Staphylococcus aureus [24] = test: Minimal inhibitory concentration against Staphylococcus aureus (Range is 1-3 uM); format: functional

O=C1c2cc(Cl)c([N+](=O)[O-])cc2C(=O)N1CCCCCn1c(C2CCNCC2)nc2cc(Cl)c(Cl)cc21
MIC (Escherichia coli [1]): 100 µM (≈ 56.5 µg/mL) | MIC (Staphylococcus aureus [2]): 50 µM (≈ 28.2 µg/mL)

Clc1cc2nc(SCCCCn3c(C4CCNCC4)nc4cc(Cl)c(Cl)cc43)[nH]c2cc1Cl
MIC (Escherichia coli [3]): > 100 µM | MIC (Staphylococcus aureus [4]): > 100 µM

O=C(Cn1c(C2CCNCC2)nc2cc(Cl)c(Cl)cc21)NNC(=O)Nc1ccc2c(c1)OCO2
MIC (Escherichia coli [1]): 100 µM (≈ 50.5 µg/mL) | MIC (Staphylococcus aureus [2]): 50 µM (≈ 25.3 µg/mL)

O=C(Cn1c(C2CCNCC2)nc2cc(Cl)c(Cl)cc21)N/N=C/c1c[nH]c2ccccc12
MIC (Escherichia coli [3]): > 100 µM | MIC (Staphylococcus aureus [2]): 50 µM (≈ 23.5 µg/mL)

O=C(Cn1c(C2CCNCC2)nc2cc(Cl)c(Cl)cc21)NNC(=O)NC12C[C@H]3C[C@@H](C1)C[C@@H](C2)C3
IC50 (Bacteria): > 100 µM | MIC (Enterococcus hirae [5]): 6 µM (≈ 3.12 µg/mL) | MIC (Escherichia coli [6]): 25 µM (≈ 13 µg/mL) | MIC (Escherichia coli [7]): 25 µM (≈ 13 µg/mL) | MIC (Klebsiella pneumoniae [8]): 50 µM (≈ 26 µg/mL) | MIC (Pseudomonas aeruginosa [9]): > 100 µM | MIC (Proteus vulgaris [10]): 25 µM (≈ 13 µg/mL) | MIC (Staphylococcus aureus [11]): 12 µM (≈ 6.23 µg/mL) | MIC (Staphylococcus aureus [12]): 12 µM (≈ 6.23 µg/mL) | MIC (Streptococcus pyogenes): 12 µM (≈ 6.23 µg/mL) | MIC (Streptococcus pneumoniae): 25 µM (≈ 13 µg/mL)

O=C(Cn1c(C2CCNCC2)nc2cc(Cl)c(Cl)cc21)N/N=C/c1c[nH]cn1
MIC (Escherichia coli [3]): > 100 µM | MIC (Staphylococcus aureus [13]): 100 µM (≈ 42 µg/mL)

O=C(Cn1c(C2CCNCC2)nc2cc(Cl)c(Cl)cc21)N/N=C/c1ccc(O)c(O)c1O
MIC (Escherichia coli [3]): > 100 µM | MIC (Staphylococcus aureus [14]): 25 µM (≈ 12 µg/mL)

COc1cc(NC(=O)NNC(=O)Cn2c(C3CCNCC3)nc3cc(Cl)c(Cl)cc32)cc(OC)c1
IC50 (Bacteria): > 100 µM | MIC (Enterococcus hirae [15]): 3 µM (≈ 1.56 µg/mL) | MIC (Escherichia coli [16]): 50 µM (≈ 26.1 µg/mL) | MIC (Escherichia coli [17]): 50 µM (≈ 26.1 µg/mL) | MIC (Klebsiella pneumoniae [18]): 25 µM (≈ 13 µg/mL) | MIC (Pseudomonas aeruginosa [9]): > 100 µM | MIC (Proteus vulgaris [19]): > 100 µM | MIC (Staphylococcus aureus [11]): 12 µM (≈ 6.26 µg/mL) | MIC (Staphylococcus aureus [12]): 12 µM (≈ 6.26 µg/mL) | MIC (Streptococcus pyogenes): 12 µM (≈ 6.26 µg/mL) | MIC (Streptococcus pneumoniae): 25 µM (≈ 13 µg/mL)

O=C1CCC(=O)N1CCCCCn1c(C2CCNCC2)nc2cc(Cl)c(Cl)cc21
MIC (Escherichia coli [3]): > 100 µM | MIC (Staphylococcus aureus [4]): > 100 µM

O=C(Cn1c(C2CCNCC2)nc2cc(Cl)c(Cl)cc21)NNC(=O)Nc1ccccc1
MIC (Escherichia coli [3]): > 100 µM | MIC (Staphylococcus aureus [13]): 100 µM (≈ 46.1 µg/mL)

COc1cc(/C=N/NC(=O)Cn2c(C3CCNCC3)nc3cc(Cl)c(Cl)cc32)cc(O)c1OC
MIC (Escherichia coli [3]): > 100 µM | MIC (Staphylococcus aureus [2]): 50 µM (≈ 25.3 µg/mL)

O=C(Cn1c(C2CCNCC2)nc2cc(Cl)c(Cl)cc21)N/N=C/c1ccc2ccccc2n1
MIC (Escherichia coli [3]): > 100 µM | MIC (Staphylococcus aureus [2]): 50 µM (≈ 24.1 µg/mL)

O=C(Cn1c(C2CCNCC2)nc2cc(Cl)c(Cl)cc21)N/N=C/c1cnn(-c2ccccc2)c1Cl
IC50 (Bacteria): > 100 µM | MIC (Enterococcus hirae [15]): 3 µM (≈ 1.59 µg/mL) | MIC (Escherichia coli [3]): > 100 µM | MIC (Escherichia coli [20]): > 100 µM | MIC (Klebsiella pneumoniae [8]): 50 µM (≈ 26.5 µg/mL) | MIC (Pseudomonas aeruginosa [21]): 100 µM (≈ 53.1 µg/mL) | MIC (Proteus vulgaris [22]): 50 µM (≈ 26.5 µg/mL) | MIC (Staphylococcus aureus [11]): 12 µM (≈ 6.37 µg/mL) | MIC (Staphylococcus aureus [12]): 12 µM (≈ 6.37 µg/mL) | MIC (Streptococcus pyogenes): 12 µM (≈ 6.37 µg/mL) | MIC (Streptococcus pneumoniae): 25 µM (≈ 13.3 µg/mL)

O=C(Cn1c(C2CCNCC2)nc2cc(Cl)c(Cl)cc21)NNC(=S)Nc1ccccc1
MIC (Escherichia coli [1]): 100 µM (≈ 47.7 µg/mL) | MIC (Staphylococcus aureus [2]): 50 µM (≈ 23.9 µg/mL)

O=C(Cn1c(C2CCNCC2)nc2cc(Cl)c(Cl)cc21)NNC(=O)Nc1ccc([N+](=O)[O-])cc1
MIC (Escherichia coli [3]): > 100 µM | MIC (Staphylococcus aureus [2]): 50 µM (≈ 25.3 µg/mL)

O=C(Cn1c(C2CCNCC2)nc2cc(Cl)c(Cl)cc21)N/N=C/c1cccc(OC(F)(F)F)c1
MIC (Escherichia coli [3]): > 100 µM | MIC (Staphylococcus aureus [2]): 50 µM (≈ 25.7 µg/mL)

O=C1c2cc3ccccc3cc2C(=O)N1CCCCCn1c(C2CCNCC2)nc2cc(Cl)c(Cl)cc21
MIC (Escherichia coli [3]): > 100 µM | MIC (Staphylococcus aureus [4]): > 100 µM

O=C1c2ccccc2C(=O)N1CCCn1c(C2CCNCC2)nc2cc(Cl)c(Cl)cc21
MIC (Escherichia coli [3]): > 100 µM | MIC (Staphylococcus aureus [4]): > 100 µM

Clc1cc2nc(C3CCNCC3)n(CCCCCN3Cc4ccccc4C3)c2cc1Cl
MIC (Escherichia coli [16]): 50 µM (≈ 22.9 µg/mL) | MIC (Staphylococcus aureus [13]): 100 µM (≈ 45.7 µg/mL)

CC(C)c1ccc2c(c1)CCC1C(C)(C/N=C(\S)NNC(=O)Cn3c(C4CCNCC4)nc4cc(Cl)c(Cl)cc43)CCC[C@]21C (some centres not stated)
MIC (Escherichia coli [16]): 50 µM (≈ 33.5 µg/mL) | MIC (Staphylococcus aureus [2]): 50 µM (≈ 33.5 µg/mL)

O=C(Cn1c(C2CCNCC2)nc2cc(Cl)c(Cl)cc21)N/N=C/c1cccc([N+](=O)[O-])c1
MIC (Escherichia coli [3]): > 100 µM | MIC (Staphylococcus aureus [2]): 50 µM (≈ 23.8 µg/mL)

O=C(Cn1c(C2CCNCC2)nc2cc(Cl)c(Cl)cc21)N/N=C/c1ccccn1
MIC (Escherichia coli [3]): > 100 µM | MIC (Staphylococcus aureus [4]): > 100 µM

O=C1c2ccccc2C(=O)N1CCCCn1c(C2CCNCC2)nc2cc(Cl)c(Cl)cc21
MIC (Escherichia coli [3]): > 100 µM | MIC (Staphylococcus aureus [4]): > 100 µM

O=C(Cn1c(C2CCNCC2)nc2cc(Cl)c(Cl)cc21)N/N=C/c1ccncc1
MIC (Escherichia coli [3]): > 100 µM | MIC (Staphylococcus aureus [4]): > 100 µM

NC[C@@H]1O[C@H](O[C@H]2[C@@H](O)[C@H](O[C@@H]3[C@@H](O)[C@H](N)C[C@H](N)[C@H]3O[C@H]3O[C@H](CO)[C@@H](O)[C@H](O)[C@H]3N)O[C@@H]2CO)[C@H](N)[C@@H](O)[C@@H]1O [PAROMOMYCIN]
MIC (Escherichia coli [23]): 6 µM (≈ 3.69 µg/mL) | MIC (Staphylococcus aureus [24]): 3 µM (≈ 1.85 µg/mL)
